Data from ChEMBL document CHEMBL3351859, “Indoleamine 2,3-dioxygenase inhibitors: potential treatment for cancer, sepsis, and more” (ACS Med Chem Lett, 2014).

target: Indoleamine 2,3-dioxygenase 1 (Homo sapiens, UniProt P14902); assay: Inhibition of intracellular IDO1 activity in human HeLa cells assessed as L-kynurenine production by Ehrlichs test; format: cell-based
Sequence (P14902 whole entry): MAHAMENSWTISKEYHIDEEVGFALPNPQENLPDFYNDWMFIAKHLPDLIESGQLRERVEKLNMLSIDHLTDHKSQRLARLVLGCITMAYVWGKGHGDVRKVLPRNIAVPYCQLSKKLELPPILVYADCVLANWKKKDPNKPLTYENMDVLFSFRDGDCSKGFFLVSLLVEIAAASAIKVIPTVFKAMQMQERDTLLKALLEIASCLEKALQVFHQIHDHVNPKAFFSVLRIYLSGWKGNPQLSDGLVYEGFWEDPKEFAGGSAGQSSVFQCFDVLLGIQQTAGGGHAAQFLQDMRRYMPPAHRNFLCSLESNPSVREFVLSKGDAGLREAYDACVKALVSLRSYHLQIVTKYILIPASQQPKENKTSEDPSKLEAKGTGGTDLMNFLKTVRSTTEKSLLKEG

Structure (SMILES) | IC50 [nM]
O=C(O)C1CC(Cc2cc(Cl)ccc2Nc2cn[nH]n2)C1 (stereo unspecified) | 1000
CCc1cc(Cl)ccc1Nc1cnn[nH]1 | < 100
CCc1cc(Nc2cnn[nH]2)ccc1Cl | 100
Cc1cc(F)ccc1Nc1c[nH]nn1 | < 100
N#Cc1cc(Nc2cn[nH]n2)ccc1Cl | 100
CS(=O)(=O)NCc1cc(Cl)ccc1Nc1cnn[nH]1 | 1000
